We go through one molecule from patent publication US5744499A, “Apoptosis-modulating factors influencing the intracellular concentration of methional/malondialdehyde” (Centre International de Recherches Dermatologiques Galderma, priority 1994, dated 1998).

One experiment relates to HeLa cells. Description: Effect of metabolites on the growth of HeLa cells. Format: cell-based. The settings on record: Homo sapiens, 72 h, three days at 37° C., estimated by protein content, average of 3 or 4 experiments, read-out: IC50 (concentration required to inhibit cell growth by 50%). The method, then: HeLa cells (0.5×10^6 per Petri dish) were cultured in 3 ml of a minimum essential Eagle medium containing 10% by weight dialyzed fetal calf serum. After four hours, methional (10 μM-1 mM), methionol (10 μM-20 mM), methylthiopropionic acid (MTPA) (1 μM-20 mM), L-methionine (1 μM-20 mM) or 4-methylthio-2-oxobutanoic acid (MTOB) (1 μM-20 mM) were added to each of the three dishes. After three days at 37° C., the cells were washed twice in a buffered, phosphatized saline medium having a pH of 7.5 (PBS medium) and collected in the same type of buffer.
Cell growth was assessed by measuring protein content (see technique described in O. H. Lowry, N. J. Rosebrouh, A. L. Farr, and R. J. Randall, J. Biol. Chem., 193, 265-275 (1951)) or the DNA content in the lysate using a bisbenzimide trihydrochloride solution (Hoechst 33258) (see W. D. Jarvis, R. N. Kolesnick, F. A. Fornari, R. S. Traylor, D. A. Gewirtz, and S. Grant, Proc. Natl. Acad. Sci. USA, 91, 73-77 (1994)), or by determining […] using 3-(4,5-dimethylthiazol-2-yl)-2,5-diphenyl-tetrazolium bromide (MTT) (see T. Mosmann, J. of Immunology, Methods, 65, 55-63 (1983)).
Each value of is the average of 3 or 4 experiments as estimated by protein content.
IC50 represents the concentration of compound required to inhibit cell growth by 50%.

Experiment [1] deals with BAF3 cells. Description: DNA fragmentation in BAF3 cells, agarose gel electrophoresis. It is filed as cell-based, mouse. The settings on record: 200-800 μM, medium with IL3, 8 hours. The method, then:
K. L. Collins, J. Marvel, […] A. Lopez-[…]. Exp. Med., 176, 1043-1051 (1992)]. […] After 8 hours of contact, the cells were washed three times in a phosphatized buffered saline medium, pH=7.5 (PBS medium). […] The supernatants were decanted and analyzed as indicated below. For purposes of comparison, the same cultures were grown in a medium, either with IL3 (+IL3) or without IL3 (-IL3). The DNA fragments obtained were analyzed qualitatively using the method described, in particular, in W. D. Jarvis, […], and S. Grant, Proc. Natl. Acad. Sci. USA, 91, 73-77 (1994). The supernatants were treated with ribonuclease A (20 μg/ml) for 1 hour at 37° C., and with the proteinase R (100 μg/ml). The DNA was purified using phenol extraction and precipitated with ethanol. […] After electrophoresis (60V, 3 hours), the gels were stained with ethydium bromide.

The subject of experiment [2] is BAF3 cells. Description: DNA fragmentation in BAF3 cells, spectrofluorometric analysis (Hoechst 33258). Format: cell-based, mouse. Here is the method: 3×10^6 BAF3 cells were grown in 6 ml of a culture medium containing IL3 in Petri dishes in the presence of different concentrations (200-800 μM) of methional or […], a substrate of the aldehyde dehydogenase. After 8 hours of contact, the cells were washed three times in a phosphatized buffered saline medium, pH=7.5 (PBS medium). These cells were lysed in 2 ml 0.1% Triton X-100, 20 mM EDTA (ethylenediaminetetraacetic acid), 5 mM Tris pH 8, and then centrifuged at 30,000 g at 4° C. for 30 minutes. The supernatants were decanted and analyzed as indicated below.
For purposes of comparison, the same cultures were grown in a medium, either with IL3 (+IL3) or without IL3 (-IL3).
Spectrofluorometric analysis was carried out to measure the […] of DNA fragments obtained (<3 kilobases). 1 ml of a solution of bisbenzimide trihydrochloride (Hoechst 33258) (1 μg/ml) in 3 mM sodium chloride, 1 mMd4EDTA, 10 mM Tris, pH=8, was added to 2 ml supernatant. The solutions obtained were analyzed by fluorometry (excitation λ=365 nm, emission λ=460 nm). The quantities of DNA were calculated in relation to highly-purified DNA (0.1 to 1 μh in 2 ml lysis buffer) treated as indicated above and expressed in 10^-9 g DNA collected from 3×10^6 cells.

The subject of experiment [3] is murine B16 Fl melanoma cells. Description: Survival of mice grafted with B16 melanoma cells. Format: in vivo, mouse. The settings on record: Table 5; three mice; daily injection for 15 days; BCNU 0.1 mg/kg, Compound A 25 mg/kg, Methional 25 mg/kg; control 20.5. Here is the method:
At t=0 day, 10^5 murine B16 Fl melanoma cells were injected into B6D2Fl mice (from the IFFA CREDO Company, France).
Table 5 reports the results corresponding to averages of the results obtained on three treated mice.
For the regimens containing multiple compounds, the quantities of each of the compounds used were identical to those of the regimens using the compounds by themselves.
Survival time was recorded beginning at t=0 day, as indicated above.
BCNU corresponds to N,N-Bis(2-chloroethyl)-N-nitrosourea. Compound A corresponds to the compound having formula (9), wherein X is a --OH radical.
Between the two regimens, the latter (to which methional was added) accounted for one-third of the mice surviving more than 60 days. The "average survival time" is the mean of the number of mice dying over the course of the experiment, i.e., within 60 days.
The procedure of the previous example was repeated, but the regimens and numbers of mice treated varied.
With respect to this latter regiment, the quantities corresponded to the quantities of compounds used alone. The percentage of long-term survivors corresponded to the percentage of mice which survived beyond 60 days.

Another experiment deals with BAF3-bO cells. Description: Induction of DNA fragmentation by methional in BAF3-bO cells ([3H]-thymidine). The settings on record: 400 μM methional, 8 hours; control 7%. Format: cell-based, mouse. Here is the method: (§1) The cells used were a BAF3 lymphocytic cell line, such as that described above. The BAF3-bcl2 cells corresponded to BAF3 cells transfected by the bcl2 gene. The BAF3-bO cells corresponded to BAF3 cells not transfected by the bcl2 gene. As indicated above, the BAF3-bO cells underwent apoptosis (more than 80% of the cells) in the absence of IL3 for 16 hours. On the other hand, the BAF3-bcl2 cells, which were transfected by the bcl2 gene, evidenced no sign of apoptosis in the absence of IL3. Accordingly, they constituted a good model for determining the apoptosis step blocked in these cells, and its potential correlation with the inhibition of malondialdehyde synthesis.
(§2) The BAF3-bO or BAF3-bcl2 cells were marked by adaptation of the method described in S. Wright et al, J. of Cell. Biochem., 48, 344-355 (1992), by incubating 2.5×10^5 cells/ml with 0.5 μCi [3H]-thymidine for 40 hours at 37° C. After two washings in a culture medium, 2.5×10^6 cells were cultured in the presence of methional. […] The aliquots of the culture medium (1 ml), of the supernatant (0.3 ml), and of the solubilized sediment (0.1 ml) were measured by quantitative analysis in the scintillation counter. The percentage of DNA fragments was calculated in the following manner: […]

For a further experiment, the system named is BAF3-bcl2 cells. Description: Induction of DNA fragmentation by methional in BAF3-bcl2 cells ([3H]-thymidine). Format: cell-based, mouse. Here is the method: as §1, §2

Each structure is given as a SMILES string.

With `CSCCC=O` [methional, 3-methylthiopropanal], the IC50 in the experiment on HeLa cells was 100 µM. Besides, the “triggering of apoptosis (ladder of DNA fragments of 180 to 200 base pairs on gel)” value with BAF3 cells [1] is on record as “apoptosis was triggered”. In addition, the “quantity of DNA fragments (<3 kilobases)” value in the experiment on BAF3 cells [2] (+IL3, 8 hours contact, methional 200-800 μM (concentration not given)) is reported as 127 10^-9 g DNA/3 × 10^6 cells. Further, the “increase in amount of DNA fragments compared with cells without IL3” value in the experiment with BAF3 cells [2] (cells treated with IL3 and methional) is reported as “comparable to the quantity found when the cells were placed in a medium not containing IL3”. The “Average Survival Time” value in experiment [3] turned out to be 27 days. Also, the “percentage of DNA fragments (maximum)” value in the experiment with BAF3-bO cells stood at 26%; in the experiment with BAF3-bcl2 cells (400 μM methional, 8 hours, control 3%) it was 7%. In addition, the “elimination of the bcl2 inhibition of apoptosis” value with BAF3-bcl2 cells (methional 50-400 μM) is “did not permit eliminating the inhibition of apoptosis resulting from the bcl2 gene”.
